What follows are compounds tested on Tacaribe virus (TRVL 11573) (assay: microbe, parasite or virus in culture). Settings: Mammarenavirus tacaribeense, Vero, read-out: Tacaribe EC50.
Type: cell-based

| Compound | EC50 [µM] |
| --- | --- |
| CC(NC(=O)NNS(=O)(=O)c1ccccc1)(C(F)(F)F)C(F)(F)F [Example 30, N-2-(1,1,1,3,3,3-Hexafluoro-2-methylpropyl)-2-[phenylsulfonyl]hydrazine-1-carboxamide] | 1 to 5 |
| CC(NC(=O)NNS(=O)(=O)c1cccc(OC(F)F)c1)(C(F)(F)F)C(F)(F)F [Example 31, N-2-(1,1,1,3,3,3-Hexafluoro-2-methylpropyl)-2-[(3-difluoromethoxyphenyl)sulfonyl] hydrazine-1-carboxamide] | 1 to 5 |
| CC(NC(=O)NNS(=O)(=O)c1cccc(C#N)c1)(C(F)(F)F)C(F)(F)F [Example 32, N-2-(1,1,1,3,3,3-Hexafluoro-2-methylpropyl)-2-[(3-cyanophenyl)sulfonyl]hydrazine-1-carboxamide] | 1 to 5 |
| CC(NC(=O)NNS(=O)(=O)c1ccc(C#N)cc1)(C(F)(F)F)C(F)(F)F [Example 33, N-2-(1,1,1,3,3,3-Hexafluoro-2-methylpropyl)-2-[(4-cyanophenyl)sulfonyl]hydrazine-1-carboxamide] | 1 to 5 |
| CC(NC(=O)NNS(=O)(=O)c1cccc2c1OCCO2)(C(F)(F)F)C(F)(F)F [Example 34, N-2-(1,1,1,3,3,3-Hexafluoro-2-methylpropyl)-2-[5-(2,3-dihydrobenzo[1,4]dioxinyl)sulfonyl]hydrazine-1-carboxamide] | 1 to 5 |
| Cc1ccc(S(=O)(=O)NN(C)C(=O)NC(C)(C(F)(F)F)C(F)(F)F)cc1 [Example 35] | 1 to 5 |
| CC(NC(=O)NNS(=O)(=O)c1cccc(F)c1)(C(F)(F)F)C(F)(F)F [Example 36, N-2-(1,1,1,3,3,3-Hexafluoro-2-methylpropyl)-2-[(3-fluorophenyl)sulfonyl]hydrazine-1-carboxamide] | 1 to 5 |
| CC(NC(=O)NNS(=O)(=O)c1ccc(F)c(F)c1)(C(F)(F)F)C(F)(F)F [Example 37, N-2-(1,1,1,3,3,3-Hexafluoro-2-methylpropyl)-2-[(3,4-difluorophenyl)sulfonyl]hydrazine-1-carboxamide] | 1 to 5 |
| Cc1nc(C)c(S(=O)(=O)NNC(=O)NC(C)(C(F)(F)F)C(F)(F)F)s1 [Example 38, N-2-(1,1,1,3,3,3-Hexafluoro-2-methylpropyl)-2-[(2,4-dimethylthiazol-5-yl)sulfonyl]hydrazine-1-carboxamide] | 1 to 5 |
| CC(NC(=O)NNS(=O)(=O)c1c(F)cccc1F)(C(F)(F)F)C(F)(F)F [Example 40, N-2-(1,1,1,3,3,3-Hexafluoro-2-methylpropyl)-2-[(2,6-difluorophenyl)sulfonyl]hydrazine-1-carboxamide] | 1 to 5 |
| CC(NC(=O)NNS(=O)(=O)c1ccccc1F)(C(F)(F)F)C(F)(F)F [Example 41, N-2-(1,1,1,3,3,3-Hexafluoro-2-methylpropyl)-2-[(2-fluorophenyl)sulfonyl]hydrazine-1-carboxamide] | 1 to 5 |
| CC(NC(=O)NNS(=O)(=O)c1cc(F)ccc1F)(C(F)(F)F)C(F)(F)F [Example 42, N-2-(1,1,1,3,3,3-Hexafluoro-2-methylpropyl)-2-[(2,5-difluorophenyl)sulfonyl]hydrazine-1-carboxamide] | 1 to 5 |
| Cc1ccc(S(=O)(=O)N(C)NC(=O)NC(C)(C(F)(F)F)C(F)(F)F)cc1 [Example 43, N-2-(1,1,1,3,3,3-Hexafluoro-2-methylpropyl)-2-[(4-methylphenyl)sulfonyl]-2-methylhydrazine-1-carboxamide] | 1 to 5 |
| CC(NC(=O)NNS(=O)(=O)c1c(Cl)cccc1Cl)(C(F)(F)F)C(F)(F)F [Example 44, N-2-(1,1,1,3,3,3-Hexafluoro-2-methylpropyl)-2-[(2,6-dichlorophenyl)sulfonyl]hydrazine-1-carboxamide] | 1 to 5 |
| CC(NC(=O)NNS(=O)(=O)c1c(C(F)(F)F)cccc1C(F)(F)F)(C(F)(F)F)C(F)(F)F [Example 45, N-2-(1,1,1,3,3,3-Hexafluoro-2-methylpropyl)-2-[(2,6-ditrifluoromethylphenyl)sulfonyl] hydrazine-1-carboxamide] | 1 to 5 |
| Cc1ccc(S(=O)(=O)NNC(=O)N(C)C(C)(C(F)(F)F)C(F)(F)F)cc1 [Example 46, N-2-(1,1,1,3,3,3-Hexafluoro-2-methylpropyl)-2-[(4-methylphenyl)sulfonyl]hydrazine-1-methylcarboxamide] | > 5 |
| Cc1noc(C)c1S(=O)(=O)NNC(=O)NC(C)(C(F)(F)F)C(F)(F)F [Example 47, N-2-(1,1,1,3,3,3-Hexafluoro-2-methylpropyl)-2-[(3,5-dimethylisoxazol-5-yl)sulfonyl]hydrazine-1-carboxamide] | > 5 |
| CC(NC(=O)NNS(=O)(=O)c1ccc([N+](=O)[O-])cc1)(C(F)(F)F)C(F)(F)F [Example 48, N-2-(1,1,1,3,3,3-Hexafluoro-2-methylpropyl)-2-[(4-nitrophenyl)sulfonyl]hydrazine-1-carboxamide] | > 5 |
| Cn1cnc(S(=O)(=O)NNC(=O)NC(C)(C(F)(F)F)C(F)(F)F)c1 [Example 49, N-2-(1,1,1,3,3,3-Hexafluoro-2-methylpropyl)-2-[(1-methylimidazol-4-yl)sulfonyl]hydrazine-1-carboxamide] | > 5 |
| CC(NC(=O)NNS(C)(=O)=O)(C(F)(F)F)C(F)(F)F [Example 50, N-2-(1,1,1,3,3,3-Hexafluoro-2-methylpropyl)-2-[methylsulfonyl]hydrazine-1-carboxamide] | > 5 |
| CC(NC(=O)N1CCN(c2ccccc2)CC1)(C(F)(F)F)C(F)(F)F [Example 51, 4-Phenylpiperazine-1-(2,2,2-trifluoro-1-methyl-1-trifluoromethylethyl)-carboxamide] | < 0.5 |

| Compound | EC50 [µM] |
| --- | --- |
| CC(NC(=O)N1CCOCC1)(C(F)(F)F)C(F)(F)F [Example 52, 4-Morpholino-1-(2,2,2-trifluoro-1-methyl-1-trifluoromethylethyl)-carboxamide] | < 0.5 |
| CC(=O)c1ccccc1NC(=O)NC(C)(C(F)(F)F)C(F)(F)F [Example 53, 1-(2-Acetylphenyl)-3-(2,2,2-trifluoro-1-methyl-1-trifluoromethylethyl)-urea] | 0.5 to 1 |
| CC(NC(=O)N1CCCCC1)(C(F)(F)F)C(F)(F)F [Example 54, 1-Piperidino-1-(2,2,2-trifluoro-1-methyl-1-trifluoromethylethyl)-carboxamide] | 0.5 to 1 |
| COc1cc(NC(=O)NC(C)(C(F)(F)F)C(F)(F)F)cc(OC)c1OC [Example 55, 1-(2,2,2-trifluoro-1-methyl-1-trifluoromethylethyl)-3-(3,4,5-trimethoxyphenyl)-urea] | 0.5 to 1 |
| CC(NC(=O)Nc1ccc(C(F)(F)F)cc1)(C(F)(F)F)C(F)(F)F [Example 56, 1-(4-Trifluoromethylphenyl)-3-(2,2,2-trifluoro-1-methyl-1-trifluoromethylethyl)-urea] | 0.5 to 1 |
| CN1CCN(C(=O)NC(C)(C(F)(F)F)C(F)(F)F)CC1 [Example 57, 4-Methylpiperazine-1-(2,2,2 trifluoro-1-methyl-1-trifluoromethylethyl)-carboxamide] | 1 to 5 |
| CC(NC(=O)Nc1cccc2ccccc12)(C(F)(F)F)C(F)(F)F [Example 58, 1-Naphthalen-1-yl-3-(2,2,2-trifluoro-1-methyl-1-trifluoromethylethyl)-urea] | 1 to 5 |
| CC(NC(=O)N1CCC(c2ccccc2)CC1)(C(F)(F)F)C(F)(F)F [Example 60, 4-Phenylpiperidin-1-yl-1-(2,2,2-trifluoro-1-methyl-1-trifluoromethylethyl)-carboxamide] | 1 to 5 |
| CC(NC(=O)Nc1ccccc1-c1ccccc1)(C(F)(F)F)C(F)(F)F [Example 61] | 1 to 5 |
| CC(NC(=O)Nc1c(F)cccc1F)(C(F)(F)F)C(F)(F)F [Example 62, 1-(2,6-Difluorophenyl)-3-(2,2,2-trifluoro-1-methyl-1-trifluoromethylethyl)-urea] | 1 to 5 |
| CC(NC(=O)Nc1ccccc1C(N)=O)(C(F)(F)F)C(F)(F)F [Example 63, 2-[3-(1,1-Bis-trifluoromethylethyl)-ureido]benzamide] | 1 to 5 |
| CC(NC(=O)Nc1c(F)cccc1Cl)(C(F)(F)F)C(F)(F)F [Example 64, 1-(2-Chloro-6-fluorophenyl)-3-(2,2,2-trifluoro-1-methyl-1-trifluoromethylethyl)-urea] | 1 to 5 |
| CC(NC(=O)Nc1cccc(C(F)(F)F)c1)(C(F)(F)F)C(F)(F)F [Example 65, 1-(3-Trifluoromethylphenyl)-3-(2,2,2-trifluoro-1-methyl-1-trifluoromethylethyl)-urea] | 1 to 5 |
| CC(NC(=O)Nc1ccccc1S(N)(=O)=O)(C(F)(F)F)C(F)(F)F [Example 66, 2-[3-(1,1-Bis-trifluoromethylethyl)-ureido]benzenesulfonamide] | 1 to 5 |
| CC(NC(=O)Nc1cccc2c1OC(F)(F)C(F)(F)O2)(C(F)(F)F)C(F)(F)F [Example 67, 1-(2,2,3,3-Tetrafluoro-2,3-dihydrobenzo[1,4]dioxin-5-yl)-3-(2,2,2-trifluoro-1-methyl-1-trifluoromethylethyl)-urea] | 1 to 5 |
| CC(NC(=O)Nc1cccc(OC(F)(F)F)c1)(C(F)(F)F)C(F)(F)F [Example 68, 1-(3-Trifluoromethoxyphenyl)-3-(2,2,2-trifluoro-1-methyl-1-trifluoromethylethyl)-urea] | 1 to 5 |
| CC(NC(=O)Nc1ccc(OC(F)(F)F)cc1)(C(F)(F)F)C(F)(F)F [Example 69, 1-(4-Trifluoromethoxyphenyl)-3-(2,2,2-trifluoro-1-methyl-1-trifluoromethylethyl)-urea] | 1 to 5 |
| CC1CCN(C(=O)NC(C)(C(F)(F)F)C(F)(F)F)CC1 [Example 70, 4-Methyl-1-piperidine-1-(2,2,2-trifluoro-1-methyl-1-trifluoromethylethyl)-carboxamide] | 1 to 5 |
| CC(NC(=O)Nc1ccc2ccccc2c1)(C(F)(F)F)C(F)(F)F [Example 71, 1-Naphthalen-2-yl-3-(2,2,2-trifluoro-1-methyl-1-trifluoromethylethyl)-urea] | 1 to 5 |
| CC(NC(=O)Nc1ccccc1F)(C(F)(F)F)C(F)(F)F [Example 72, 1-(2-fluorophenyl)-3-(2,2,2-trifluoro-1-methyl-1-trifluoromethylethyl)-urea] | 1 to 5 |

Source: US8658697B2 (priority 2004, dated 2014)
